Data published in US20050080139A1, “Naaladase inhibitors for treating huntington's disease” (priority 2001, published 2005).

How the values were obtained:
[1] = target: NAALADase (Homo sapiens, UniProt Q04609); conditions: NAAG as substrate of NAALADase; cited from earlier work
[2] = tested on: Transgenic HD mice of the N171-82Q strain; assay: Rotarod behavioral testing in transgenic mouse model of Huntington's disease; assay type: in vivo; conditions: transgenic HD mice N171-82Q, 30 mg/kg from 10 weeks of age, vs vehicle
Procedure: Transgenic HD mice of the […]-[…] strain and non-transgenic littermates were treated with NAALADase inhibitor Compound B (30 mg/kg) or a vehicle from 10 weeks of age. The mice were placed on a rotating rod (“rotarod”). The length of time at which the mouse fell off the rotarod was recorded as a measure of motor coordination. […] The treatment with Compound B had no effect on the rotarod performance of normal non-HD mice.

[3] = tested on: Transgenic HD mice of the N171-82Q strain; assay: Total distance traveled (overall locomotion) in HD mice; assay type: in vivo; conditions: 30 mg/kg from 10 weeks of age, vs vehicle
Procedure: Transgenic HD mice of the […]-[…] strain and non-transgenic littermates were treated with NAALADase inhibitor Compound B (30 mg/kg) or a vehicle from 10 weeks of age. The mice were placed on a rotating rod (“rotarod”). The length of time at which the mouse fell off the rotarod was recorded as a measure of motor coordination. […] The treatment with Compound B had no effect on the rotarod performance of normal non-HD mice. The total distance traveled by the mice was also recorded as a measure of overall locomotion.

[4] = tested on: transgenic HD mice (N171-82Q); assay: Survival of transgenic HD mice; assay type: in vivo
Procedure: The effects of Compound B and vehicle on the survival of transgenic HD mice (N171-82Q) were evaluated. Thirteen mice (six male and seven female) were assigned to the Compound B treatment group, and fourteen mice (six male and eight female) were assigned to the vehicle treatment group. Treatment was continued until all the mice died.

NAALADase, sequence (Q04609 whole entry): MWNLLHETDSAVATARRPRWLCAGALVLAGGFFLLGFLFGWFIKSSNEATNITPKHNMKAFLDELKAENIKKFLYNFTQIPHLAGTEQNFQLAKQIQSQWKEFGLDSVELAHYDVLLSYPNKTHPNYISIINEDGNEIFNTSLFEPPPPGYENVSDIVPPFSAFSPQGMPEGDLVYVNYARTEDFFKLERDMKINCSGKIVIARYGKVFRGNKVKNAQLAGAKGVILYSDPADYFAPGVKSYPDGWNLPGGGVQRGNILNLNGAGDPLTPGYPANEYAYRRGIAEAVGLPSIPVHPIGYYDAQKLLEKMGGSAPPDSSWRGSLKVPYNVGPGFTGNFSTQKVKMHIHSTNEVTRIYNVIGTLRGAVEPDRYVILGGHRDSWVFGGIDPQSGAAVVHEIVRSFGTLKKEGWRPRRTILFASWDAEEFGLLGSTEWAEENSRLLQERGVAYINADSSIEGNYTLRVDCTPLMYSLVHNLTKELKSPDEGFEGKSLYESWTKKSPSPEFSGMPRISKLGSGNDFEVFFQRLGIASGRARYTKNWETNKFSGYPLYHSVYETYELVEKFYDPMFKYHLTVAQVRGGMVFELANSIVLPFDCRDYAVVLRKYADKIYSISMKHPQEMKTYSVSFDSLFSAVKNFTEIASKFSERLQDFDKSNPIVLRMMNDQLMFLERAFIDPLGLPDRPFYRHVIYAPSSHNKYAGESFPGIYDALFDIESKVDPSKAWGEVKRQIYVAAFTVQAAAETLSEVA

Molecule	Km [1]	rotarod performance (length of time on the rotarod, motor coordination) [2]	total distance traveled (overall locomotion) [3]	survival time vs vehicle ([4]; female transgenic HD mice, p-value 0.03)	survival time vs vehicle ([4]; transgenic HD mice N171-82Q, both sexes, difference in median survival time)	median survival time ([4]; transgenic HD mice N171-82Q, both sexes, vehicle 158.5 days, p-value=0.07)
N-acetyl-aspartyl-glutamate [NAAG]	0.54 µM	–	–	–	–	–
O=C(O)CCC(CCCS)C(=O)O (stereo not drawn) [Compound B, 2-(3-sulfanylpropyl)-pentanedioic acid]	–	stayed longer on the rotarod	no apparent effect on overall locomotion	significantly prolonged survival time	not statistically significant	184 days
